In the NIST ThermoML archive (doi:10.1021/je100715x):
Numbers after ± are expanded uncertainties.

Experiments:
[1] = 101.33 kPa, Liquid; for viscosity: Capillary tube (Ostwald / Ubbelohde) method; for mass density: Vibrating tube method
[2] = refractive index (Na D-line) (dimensionless); conditions: 101.33 kPa, Liquid, Standard Abbe refractometry

## CC(=O)c1ccccc1 [acetophenone]
[1]; 303.15 K
  viscosity: 1.518 ± 0.02 mPa·s
  mass density: 1019.9 ± 0.3 kg/m3
[1]; 308.15 K
  viscosity: 1.378 ± 0.018 mPa·s
  mass density: 1016.9 ± 0.3 kg/m3
[1]; 313.15 K
  viscosity: 1.291 ± 0.016 mPa·s
  mass density: 1013.5 ± 0.3 kg/m3
[2]; 303.15 K
  refractive index: 1.5294 ± 0.0004
[2]; 308.15 K
  refractive index: 1.527 ± 0.0004
[2]; 313.15 K
  refractive index: 1.525 ± 0.0004

## O=C1CCCCC1 [cyclohexanone]
[1]; 303.15 K
  viscosity: 1.816 ± 0.023 mPa·s
  mass density: 937.7 ± 0.4 kg/m3
[1]; 308.15 K
  viscosity: 1.657 ± 0.021 mPa·s
  mass density: 932.8 ± 0.4 kg/m3
[1]; 313.15 K
  viscosity: 1.542 ± 0.02 mPa·s
  mass density: 928.2 ± 0.4 kg/m3
[2]; 303.15 K
  refractive index: 1.4465 ± 0.0004
[2]; 308.15 K
  refractive index: 1.444 ± 0.0004
[2]; 313.15 K
  refractive index: 1.442 ± 0.0004

## O=C1CCCC1 [cyclopentanone]
[1]; 303.15 K
  viscosity: 0.999 ± 0.013 mPa·s
  mass density: 938.5 ± 0.4 kg/m3
[1]; 308.15 K
  viscosity: 0.927 ± 0.012 mPa·s
  mass density: 933.9 ± 0.4 kg/m3
[1]; 313.15 K
  viscosity: 0.865 ± 0.011 mPa·s
  mass density: 929 ± 0.4 kg/m3
[2]; 298.15 K
  refractive index: 1.4352 ± 0.0004
[2]; 303.15 K
  refractive index: 1.4335 ± 0.0004
[2]; 308.15 K
  refractive index: 1.431 ± 0.0004
[2]; 313.15 K
  refractive index: 1.429 ± 0.0004

## CCOC(=O)C(=O)OCC [diethyl ethanedioate]
[1]; 303.15 K
  viscosity: 1.623 ± 0.021 mPa·s
  mass density: 1066.1 ± 0.4 kg/m3
[1]; 308.15 K
  viscosity: 1.48 ± 0.019 mPa·s
  mass density: 1060.5 ± 0.4 kg/m3
[1]; 313.15 K
  viscosity: 1.367 ± 0.018 mPa·s
  mass density: 1054.5 ± 0.4 kg/m3
[2]; 303.15 K
  refractive index: 1.4063 ± 0.0004
[2]; 308.15 K
  refractive index: 1.404 ± 0.0004
[2]; 313.15 K
  refractive index: 1.402 ± 0.0004

## CCC(=O)CC [pentan-3-one]
[1]; 303.15 K
  viscosity: 0.429 ± 0.006 mPa·s
  mass density: 805.7 ± 0.3 kg/m3
[1]; 308.15 K
  viscosity: 0.397 ± 0.005 mPa·s
  mass density: 801.7 ± 0.3 kg/m3
[1]; 313.15 K
  viscosity: 0.388 ± 0.005 mPa·s
  mass density: 797.7 ± 0.4 kg/m3
[2]; 303.15 K
  refractive index: 1.3879 ± 0.0004
[2]; 308.15 K
  refractive index: 1.3857 ± 0.0004
[2]; 313.15 K
  refractive index: 1.3835 ± 0.0004
